pIC50: −log10 of the molar value. The source made the active and inactive calls. No rule for the calls is given here.
Biological target: C-X-C chemokine receptor type 6 (Homo sapiens) (UniProt O00574)
Test: potency against CXCR6 with APJ panel – cell-based, beta-arrestin, DiscoveRx, uHTS hits, dose response (AID 624129)
Settings: CXCR6 beta-arrestin (DiscoveRx) antagonist cell assay; for outcome: CXCR6, dose range 1; for inhibition: CXCR6, run 2, dose range 1, at 79 µM (top of the series)
[1] = CXCR6, dose range 1, mean IC50 across replicates

Sequence of C-X-C chemokine receptor type 6 (Homo sapiens) (O00574 whole entry, looked up): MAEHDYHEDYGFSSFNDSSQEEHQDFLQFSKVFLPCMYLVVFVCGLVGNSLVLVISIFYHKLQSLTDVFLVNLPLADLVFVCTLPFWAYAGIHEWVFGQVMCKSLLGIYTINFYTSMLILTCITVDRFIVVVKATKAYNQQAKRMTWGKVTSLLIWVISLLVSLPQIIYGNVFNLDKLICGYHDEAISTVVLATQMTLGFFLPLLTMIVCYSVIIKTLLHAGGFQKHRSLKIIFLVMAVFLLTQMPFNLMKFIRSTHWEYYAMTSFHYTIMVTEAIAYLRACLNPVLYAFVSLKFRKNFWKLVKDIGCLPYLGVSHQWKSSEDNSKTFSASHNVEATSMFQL

| Structure (SMILES) | outcome | pIC50 [1] | pIC50 (CXCR6, run 1, dose range 2) | inhibition [%] | pIC50 (CXCR6, run 2, dose range 2) |
| --- | --- | --- | --- | --- | --- |
| C=CCSC1=N/C(=C\c2cc(OCC)c(OC(C)=O)c([N+](=O)[O-])c2)C(=O)S1 | inactive | 4.33 | 4.21 | 96.9 | 4.48 |
| COC(=O)C1=C(C(=O)OC)C2OC1c1cc3ccccc3cc12 | inactive | 4.84 | 4.91 | 112 | 4.78 |
| COc1ccc(/C=C2/CCC(CN3CCOCC3)C2=O)cc1 (stereo not given) | inactive | 4.83 | 4.85 | 112 | 4.82 |
| CCOC(=O)CS(=O)(=O)c1nc(-c2ccccc2)cc(C(F)(F)F)n1 | inactive | 4.72 | 4.75 | 108 | 4.70 |
| CC1(C)CC[C@]2(C(=O)n3ccnc3)CC[C@]3(C)[C@H](C(=O)C=C4[C@@]5(C)C=C(C#N)C(=O)C(C)(C)[C@@H]5CC[C@]43C)[C@@H]2C1 | inactive | 4.79 | 4.84 | 105 | 4.74 |
| CCOC(=O)[C@]12Cc3cc(Cl)ccc3[C@H]1N(C1CCCCC1)C(=O)c1cc(OC)ccc12 | inactive | 4.75 | 4.79 | 113 | 4.71 |
| Cc1cc2nc(N3C(=O)CNC3=S)sc2cc1C | inactive | 4.94 | 5.08 | 89.4 | 4.83 |
| COc1ccc(C(=O)NC(=S)Nc2ccc([N+](=O)[O-])cc2C)cc1OC | inactive | 4.66 | 4.74 | 100 | 4.60 |
| COc1cc(C2C(C#N)=C(N)Oc3n[nH]c(-c4cccs4)c32)cc(OC)c1O (stereo not given) | inactive | 4.33 | 4.44 | 70.9 | 4.23 |
| CCC1=NN(C(=O)c2ccc([N+](=O)[O-])cc2)C(O)(c2ccccc2)C1 (stereo not given) | inactive | 4.35 | 4.60 | 91.7 | 4.19 |
| COc1ccc(C(=O)N/N=C/c2cccc3cccnc23)cc1 | inactive | 4.87 | 4.90 | 60.1 | 4.84 |
| CC(Oc1cccc(Br)c1)C(=O)NNC(=O)c1ccccn1 (stereo not given) | inactive | 4.84 | 4.92 | 105 | 4.77 |
| Cc1ccc(NS(=O)(=O)c2cc([N+](=O)[O-])ccc2NNC(=S)Nc2cc(C)ccc2C)c(C)c1 | inactive | 4.48 | 4.67 | 114 | 4.35 |
| Cc1[nH]n2c(=O)cc(-c3ccc([N+](=O)[O-])cc3)nc2c1-c1ccccc1 | inactive | 4.84 | 4.86 | 81.6 | 4.81 |
| COC(=O)CSc1[nH]c2ccc(Br)cc2c1[N+](=O)[O-] | inactive | 4.37 | 4.38 | 23.1 | < 4.10 |
| O=C(NC(=S)N1CCN(c2ccc(C(F)(F)F)cc2[N+](=O)[O-])CC1)c1cccs1 | inactive | 4.89 | 4.98 | 85.8 | 4.81 |

| Structure (SMILES) | outcome | pIC50 [1] | pIC50 (CXCR6, run 1, dose range 2) | inhibition [%] | pIC50 (CXCR6, run 2, dose range 2) |
| --- | --- | --- | --- | --- | --- |
| COc1ccc(-n2nnnc2S(=O)(=O)CC(=O)N2CCCCC2)cc1 | inactive | 4.72 | 4.72 | 97.5 | 4.73 |
| O=C1c2cccc3c([N+](=O)[O-])ccc(c23)C(=O)N1c1ccccn1 | inactive | 4.61 | 4.61 | 101 | 4.62 |
| Cc1ccc(CS(=O)(=O)c2ncc(Cl)c(C(=O)Nc3ccc(OC(F)F)cc3)n2)cc1 | inactive | 4.90 | 4.90 | 105 | < 4.10 |
| O=C(NNc1ccc([N+](=O)[O-])cc1[N+](=O)[O-])c1ccco1 | inactive | 4.52 | 4.52 | 86.8 | 4.52 |
| N#CC(C#N)=C1C=CC=CN1/C(=C\c1ccco1)C(=O)c1ccc(-c2ccccc2)cc1 | inactive | 4.85 | 4.91 | 103 | 4.80 |
| CCOC(=O)C1CCCN(c2c(C(=O)c3ccccc3)cnc3ccc(OC)cc23)C1 (stereo not given) | inactive | 4.84 | 4.75 | 99.5 | 4.96 |
| Cc1ccc(NC(=S)NNc2ccc(C(=O)O)cc2[N+](=O)[O-])cc1C | inactive | 4.31 | 4.31 | 62 | < 4.10 |
| O=C(Nc1ccc(F)cc1)c1nc(S(=O)(=O)Cc2ccccc2)ncc1Cl | inactive | 4.89 | 4.90 | 112 | 4.87 |
| O=C1C=CC(=O)N1c1ccc(N2CCCCC2)cc1 | inactive | 4.74 | 4.76 | 113 | 4.72 |
| O=C(C#Cc1cccc([N+](=O)[O-])c1)c1ccccc1 | inactive | 4.87 | 4.90 | 108 | 4.84 |
| N=C1SCC(=O)N1c1ncc(Cc2ccccc2Cl)s1 | inactive | 4.92 | 4.98 | 78.1 | 4.87 |
| Oc1ccc(Cl)c2cccnc12 | active | 5.32 | 5.32 | 17.7 | < 4.10 |
| CCCNC(=O)c1nnsc1S(=O)c1ccc(Cl)cc1 (stereo not given) | inactive | 4.93 | 4.93 | 112 | 4.93 |
| Cc1cc(C)cc(N2C(=O)CC(Sc3nnnn3-c3ccccc3)C2=O)c1 (stereo not given) | inactive | 4.84 | 4.86 | 113 | 4.82 |
| CC1=C(O)C(=O)C=C2C1=CC=C1C2(C)CCC2(C)C3CC(C)(C(=O)O)CCC3(C)CCC12C (stereo not given) | inactive | 4.71 | 4.78 | 113 | 4.66 |

Next, values leading:

| outcome | pIC50 [1] | pIC50 (CXCR6, run 1, dose range 2) | inhibition [%] | pIC50 (CXCR6, run 2, dose range 2) | Structure (SMILES) |
| --- | --- | --- | --- | --- | --- |
| inactive | 4.85 | 4.87 | 112 | 4.84 | COC(=O)c1ccc(/C=C(\C#N)C(=O)NC(C)c2ccccc2)cc1 (stereo not given) |
| inactive | 4.94 | 4.95 | 109 | 4.92 | Fc1ccc(NC(=S)NNc2ncc(C(F)(F)F)cc2Cl)c(F)c1 |
| inactive | 4.86 | 4.93 | 112 | 4.81 | O=C(C(=Cc1ccc(F)cc1)C(=O)c1ccccc1)c1ccccc1 |
| inactive | 4.79 | 4.86 | 113 | 4.74 | COC(=O)c1cc([N+](=O)[O-])c(-n2cncn2)c([N+](=O)[O-])c1 |
| inactive | 4.81 | 4.80 | 110 | 4.82 | O=C1C=CC(=O)N1CCNc1ncc(C(F)(F)F)cc1Cl |
| inactive | 4.94 | 4.93 | 111 | 4.95 | O=C(Nc1ccccc1)c1nnsc1S(=O)c1ccc(Cl)cc1 (stereo not given) |
| inactive | 4.69 | 4.89 | 88.6 | 4.55 | COc1cc(/C=C2\SC(=O)N(c3ccc(Cl)cc3)C2=O)cc([N+](=O)[O-])c1O |
| inactive | 4.75 | 4.75 | 112 | 4.75 | CCCSc1cc(NCCOC(=O)CCC)c([N+](=O)[O-])c2nonc12 |
| inactive | 4.89 | 4.88 | 112 | 4.90 | CNC(=O)c1nnsc1S(=O)c1ccc(Cl)cc1 (stereo not given) |
| inactive | 4.73 | 4.75 | 111 | 4.71 | CCc1nc2c(OCCC3CCCCC3)cccn2c1N(C)C(=O)c1ccc(C)cc1 |
| inactive | 4.75 | 4.82 | 108 | 4.68 | COc1ccc(CNC(=O)c2nc(S(=O)(=O)Cc3ccccc3)ncc2Cl)cc1 |
| inactive | 4.76 | 4.73 | 93.1 | 4.78 | CN(C)/C=C/c1oc2ccc(O)cc2c1[N+](=O)[O-] |
| inactive | 4.80 | 4.90 | 112 | 4.72 | COc1cc(N2C(=O)C=CC2=O)ccc1N1C(=O)C=CC1=O |
| inactive | 4.40 | 4.53 | 101 | 4.29 | C=CC[n+]1c(-c2ccc(Cl)cc2Cl)csc1Nc1c(C)n(C)n(-c2ccccc2)c1=O |
| inactive | 4.69 | 4.58 | 109 | 4.83 | Cc1cccc(NC(=S)NNc2ncc(C(F)(F)F)cc2Cl)c1 |
| inactive | 4.26 | 4.14 | 99.6 | 4.43 | O=[N+]([O-])c1ccc(N/N=C/c2sc(N3CCOCC3)nc2-c2ccccc2)c(S(=O)(=O)Nc2ccc(Cl)cc2)c1 |
| inactive | 4.92 | 4.96 | 111 | 4.88 | CCc1ccc(NC(=O)c2nc(S(=O)(=O)Cc3ccccc3)ncc2Cl)cc1 |

From PubChem BioAssay AID624129 (Sanford-Burnham Center for Chemical Genomics, 2012)
